Assay results as given in BigSolDB 2.1.

[1] = in tetrachloromethane, 283.15 K
[2] = in tetrachloromethane, 288.15 K
[3] = in tetrachloromethane, 293.15 K
[4] = in tetrachloromethane, 298.15 K
[5] = in tetrachloromethane, 303.15 K
[6] = in tetrachloromethane, 308.15 K
[7] = in tetrachloromethane, 313.15 K
[8] = in tetrachloromethane, 318.15 K
[9] = in tetrachloromethane, 323.15 K
[10] = in tetrachloromethane, 328.15 K

## O=C1OC(=O)c2c(Cl)cccc21
In acetonitrile, 283.15 K
  solubility (mole fraction): 0.0676
In acetonitrile, 288.15 K
  solubility (mole fraction): 0.0793
In acetonitrile, 293.15 K
  solubility (mole fraction): 0.092
In acetonitrile, 298.15 K
  solubility (mole fraction): 0.106
In acetonitrile, 303.15 K
  solubility (mole fraction): 0.123
In acetonitrile, 308.15 K
  solubility (mole fraction): 0.142
In acetonitrile, 313.15 K
  solubility (mole fraction): 0.165
In acetonitrile, 318.15 K
  solubility (mole fraction): 0.193
In acetonitrile, 323.15 K
  solubility (mole fraction): 0.225
In acetonitrile, 328.15 K
  solubility (mole fraction): 0.263
In cyclohexane, 283.15 K
  solubility (mole fraction): 0.00042
In cyclohexane, 288.15 K
  solubility (mole fraction): 0.000507
In cyclohexane, 293.15 K
  solubility (mole fraction): 0.000554
In cyclohexane, 298.15 K
  solubility (mole fraction): 0.000764
In cyclohexane, 303.15 K
  solubility (mole fraction): 0.000909
In cyclohexane, 308.15 K
  solubility (mole fraction): 0.00108
In cyclohexane, 313.15 K
  solubility (mole fraction): 0.00136
In cyclohexane, 318.15 K
  solubility (mole fraction): 0.00176
In cyclohexane, 323.15 K
  solubility (mole fraction): 0.00222
In cyclohexane, 328.15 K
  solubility (mole fraction): 0.00277
In methanol, 283.15 K
  solubility (mole fraction): 0.0637
In methanol, 288.15 K
  solubility (mole fraction): 0.0698
In methanol, 293.15 K
  solubility (mole fraction): 0.0766
In methanol, 298.15 K
  solubility (mole fraction): 0.09
In methanol, 303.15 K
  solubility (mole fraction): 0.0968
In methanol, 308.15 K
  solubility (mole fraction): 0.104
In methanol, 313.15 K
  solubility (mole fraction): 0.116
In methanol, 318.15 K
  solubility (mole fraction): 0.126
In methanol, 323.15 K
  solubility (mole fraction): 0.144
In methanol, 328.15 K
  solubility (mole fraction): 0.161
In methyl acetate, 283.15 K
  solubility (mole fraction): 0.0882
In methyl acetate, 288.15 K
  solubility (mole fraction): 0.0987
In methyl acetate, 293.15 K
  solubility (mole fraction): 0.112
In methyl acetate, 298.15 K
  solubility (mole fraction): 0.123
In methyl acetate, 303.15 K
  solubility (mole fraction): 0.145
In methyl acetate, 308.15 K
  solubility (mole fraction): 0.157
In methyl acetate, 313.15 K
  solubility (mole fraction): 0.176
In methyl acetate, 318.15 K
  solubility (mole fraction): 0.198
In methyl acetate, 323.15 K
  solubility (mole fraction): 0.223
In methyl acetate, 328.15 K
  solubility (mole fraction): 0.252
In tert-amyl alcohol, 283.15 K
  solubility (mole fraction): 0.00423
In tert-amyl alcohol, 288.15 K
  solubility (mole fraction): 0.00548
In tert-amyl alcohol, 293.15 K
  solubility (mole fraction): 0.00677
In tert-amyl alcohol, 298.15 K
  solubility (mole fraction): 0.00875
In tert-amyl alcohol, 303.15 K
  solubility (mole fraction): 0.0113
In tert-amyl alcohol, 308.15 K
  solubility (mole fraction): 0.0125
In tert-amyl alcohol, 313.15 K
  solubility (mole fraction): 0.0146
In tert-amyl alcohol, 318.15 K
  solubility (mole fraction): 0.0184
In tert-amyl alcohol, 323.15 K
  solubility (mole fraction): 0.0228
In tert-amyl alcohol, 328.15 K
  solubility (mole fraction): 0.0288
[1]
  solubility (mole fraction): 0.00307
[2]
  solubility (mole fraction): 0.004
[3]
  solubility (mole fraction): 0.00497
[4]
  solubility (mole fraction): 0.00605
[5]
  solubility (mole fraction): 0.00729
[6]
  solubility (mole fraction): 0.00873
[7]
  solubility (mole fraction): 0.0104
[8]
  solubility (mole fraction): 0.0125
[9]
  solubility (mole fraction): 0.0146
[10]
  solubility (mole fraction): 0.0177

## O=C1OC(=O)c2cc(Cl)ccc21
In acetonitrile, 283.15 K
  solubility (mole fraction): 0.102
In acetonitrile, 288.15 K
  solubility (mole fraction): 0.121
In acetonitrile, 293.15 K
  solubility (mole fraction): 0.143
In acetonitrile, 298.15 K
  solubility (mole fraction): 0.167
In acetonitrile, 303.15 K
  solubility (mole fraction): 0.194
In acetonitrile, 308.15 K
  solubility (mole fraction): 0.221
In acetonitrile, 313.15 K
  solubility (mole fraction): 0.249
In acetonitrile, 318.15 K
  solubility (mole fraction): 0.277
In acetonitrile, 323.15 K
  solubility (mole fraction): 0.304
In acetonitrile, 328.15 K
  solubility (mole fraction): 0.331
In cyclohexane, 283.15 K
  solubility (mole fraction): 0.000482
In cyclohexane, 288.15 K
  solubility (mole fraction): 0.000684
In cyclohexane, 293.15 K
  solubility (mole fraction): 0.000895
In cyclohexane, 298.15 K
  solubility (mole fraction): 0.00109
In cyclohexane, 303.15 K
  solubility (mole fraction): 0.00139
In cyclohexane, 308.15 K
  solubility (mole fraction): 0.00161
In cyclohexane, 313.15 K
  solubility (mole fraction): 0.00203
In cyclohexane, 318.15 K
  solubility (mole fraction): 0.00246
In cyclohexane, 323.15 K
  solubility (mole fraction): 0.00315
In cyclohexane, 328.15 K
  solubility (mole fraction): 0.00399
In methanol, 283.15 K
  solubility (mole fraction): 0.0848
In methanol, 288.15 K
  solubility (mole fraction): 0.0944
In methanol, 293.15 K
  solubility (mole fraction): 0.118
In methanol, 298.15 K
  solubility (mole fraction): 0.136
In methanol, 303.15 K
  solubility (mole fraction): 0.167
In methanol, 308.15 K
  solubility (mole fraction): 0.196
In methanol, 313.15 K
  solubility (mole fraction): 0.228
In methanol, 318.15 K
  solubility (mole fraction): 0.266
In methanol, 323.15 K
  solubility (mole fraction): 0.309
In methanol, 328.15 K
  solubility (mole fraction): 0.356
In methyl acetate, 283.15 K
  solubility (mole fraction): 0.134
In methyl acetate, 288.15 K
  solubility (mole fraction): 0.163
In methyl acetate, 293.15 K
  solubility (mole fraction): 0.19
In methyl acetate, 298.15 K
  solubility (mole fraction): 0.216
In methyl acetate, 303.15 K
  solubility (mole fraction): 0.241
In methyl acetate, 308.15 K
  solubility (mole fraction): 0.269
In methyl acetate, 313.15 K
  solubility (mole fraction): 0.296
In methyl acetate, 318.15 K
  solubility (mole fraction): 0.33
In methyl acetate, 323.15 K
  solubility (mole fraction): 0.362
In methyl acetate, 328.15 K
  solubility (mole fraction): 0.407
In tert-amyl alcohol, 283.15 K
  solubility (mole fraction): 0.00738
In tert-amyl alcohol, 288.15 K
  solubility (mole fraction): 0.00942
In tert-amyl alcohol, 293.15 K
  solubility (mole fraction): 0.0129
In tert-amyl alcohol, 298.15 K
  solubility (mole fraction): 0.0166
In tert-amyl alcohol, 303.15 K
  solubility (mole fraction): 0.0219
In tert-amyl alcohol, 308.15 K
  solubility (mole fraction): 0.0274
In tert-amyl alcohol, 313.15 K
  solubility (mole fraction): 0.0376
In tert-amyl alcohol, 318.15 K
  solubility (mole fraction): 0.0489
In tert-amyl alcohol, 323.15 K
  solubility (mole fraction): 0.065
In tert-amyl alcohol, 328.15 K
  solubility (mole fraction): 0.0823
[1]
  solubility (mole fraction): 0.00888
[2]
  solubility (mole fraction): 0.0103
[3]
  solubility (mole fraction): 0.0128
[4]
  solubility (mole fraction): 0.0142
[5]
  solubility (mole fraction): 0.0169
[6]
  solubility (mole fraction): 0.0191
[7]
  solubility (mole fraction): 0.0212
[8]
  solubility (mole fraction): 0.0233
[9]
  solubility (mole fraction): 0.0254
[10]
  solubility (mole fraction): 0.0274
